Measurements reported in ChEMBL document CHEMBL6109134, “Discovery of AMG 193, an MTA-Cooperative PRMT5 Inhibitor for the Treatment of MTAP-Deleted Cancers” (J Med Chem, 2025).
One block for each compound: values may come before it.

What was measured:
[1] = Metabolic stability in rat hepatocytes assessed as intrinsic clearance measured per 10^6 cells; assay type: ADME, cell-based, Hepatocyte; details: read-out: CLH
[2] = Oral bioavailability in Beagle dog at 2 mg/kg administered as 1% Tween 80, 2% HPMC, 97% water/methanesulfonic acid, pH 2.0 formulation; assay type: ADME, organism-based, Canis lupus familiaris; details: in vivo
[3] = Half-life in Beagle dog at 0.5 mg/kg, iv; assay type: ADME, organism-based, Canis lupus familiaris; details: in vivo
[4] = Unbound clearance in Beagle dog at 0.5 mg/kg, iv; assay type: ADME, organism-based, Canis lupus familiaris; details: in vivo
[5] = Unbound clearance in CD-1 mouse at 1 mg/kg, iv; assay type: ADME, organism-based; details: in vivo
[6] = Clearance in Sprague-Dawley rat at 0.5 mg/kg, iv; details: in vivo
[7] = Half-life in Sprague-Dawley rat at 0.5 mg/kg, iv; assay type: ADME, organism-based; details: in vivo
[8] = Protein binding in dog plasma assessed as unbound fraction by ultracentrifugation
[9] = Clearance in Beagle dog at 0.5 mg/kg, iv; details: in vivo
[10] = AUC (0 to t) in CD-1 mouse at 5 mg/kg, po administered as 1% Tween 80, 2% HPMC, 97% water/methane sulfonic acid, pH 2.0 formulation; assay type: ADME, organism-based; details: in vivo
[11] = Drug metabolism in mouse hepatocytes assessed as 3-methylquinoline ring system oxidation mediated metabolite formation; assay type: ADME, cell-based, Hepatocyte
[12] = Unbound clearance in Sprague-Dawley rat at 0.5 mg/kg, iv; assay type: ADME, organism-based; details: in vivo
[13] = Metabolic stability in rat liver microsomes assessed as intrinsic clearance; assay type: ADME, Microsome; details: time 40 min, read-out: CLH
[14] = tested on: BXPC-3; experiment: Antiproliferative activity against human BXPC-3 cells assessed as effect on cell viability; assay type: functional, cell-based
[15] = Volume of distribution at steady state in Sprague-Dawley rat at 0.5 mg/kg, iv; details: in vivo
[16] = tested on: U-87 MG; experiment: Antiproliferative activity against human U-87 MG cells assessed as effect on cell viability; assay type: functional, cell-based, U-87MG ATCC
[17] = Metabolic stability in dog liver microsomes assessed as intrinsic clearance; assay type: ADME, Canis lupus familiaris, Microsome; details: read-out: CLH
[18] = Protein binding in mouse plasma assessed as unbound fraction by ultracentrifugation
[19] = Metabolic stability in mouse hepatocytes assessed as intrinsic clearance measured per 10^6 cells; assay type: ADME, cell-based, Hepatocyte; details: read-out: CLH
[20] = tested on: DOHH-2; experiment: Antiproliferative activity against human DOHH-2 cells assessed as effect on cell viability; assay type: functional, cell-based
[21] = tested on: HCT-116; experiment: Antiproliferative activity against MTAP-deleted human HCT-116 cells assessed as effect on cell viability incubated for 6 days by Celltiter-Glo luminescent cell viability assay; assay type: functional, cell-based; details: HCT-116, 144 h
[22] = Metabolic stability in human hepatocytes assessed as intrinsic clearance measured per 10^6 cells; assay type: ADME, cell-based, Hepatocyte; details: read-out: CLH
[23] = tested on: HCT-116; experiment: Antiproliferative activity against human HCT-116 cells harboring wildtype MTAP assessed as effect on cell viability incubated for 6 days by Celltiter-Glo luminescent cell viability assay; assay type: functional, cell-based; details: HCT-116, 144 h
[24] = Metabolic stability in mouse liver microsomes assessed as intrinsic clearance at 0.5 uM incubated for 40 mins in presence of NADPH; assay type: ADME, Microsome; details: read-out: CLH
[25] = Metabolic stability in dog hepatocytes assessed as intrinsic clearance measured per 10^6 cells; assay type: ADME, cell-based, Canis lupus familiaris, Hepatocyte; details: read-out: CLH
[26] = Metabolic stability in human liver microsomes assessed as intrinsic clearance at 0.5 uM incubated for 40 mins in presence of NADPH; assay type: ADME, Microsome; details: read-out: CLH
[27] = in vivo; details: beagle, dog, iv, 0.5 mg/kg
[28] = Drug metabolism in human hepatocytes assessed as 3-methylquinoline ring system oxidation mediated metabolite formation; assay type: ADME, cell-based, Hepatocyte
[29] = Protein binding in human plasma assessed as unbound fraction by ultracentrifugation
[30] = Oral bioavailability in CD-1 mouse at 5 mg/kg administered as 1% Tween 80, 2% HPMC, 97% water/methane sulfonic acid, pH 2.0 formulation; assay type: ADME, organism-based; details: in vivo
[31] = Half-life in CD-1 mouse at 1 mg/kg, iv; assay type: ADME, organism-based; details: in vivo
[32] = tested on: human MDR1 (P-gp); experiment: Efflux ratio of permeability across basolateral to apical side over apical to basolateral side in MDCK cells transfected with human MDR1 in absence of elacridar; details: dog
[33] = biological target: CYP3A4 (Homo sapiens, UniProt P08684); experiment: in vitro; details: human liver microsomes, probe midazolam
CYP3A4, sequence (P08684 whole entry): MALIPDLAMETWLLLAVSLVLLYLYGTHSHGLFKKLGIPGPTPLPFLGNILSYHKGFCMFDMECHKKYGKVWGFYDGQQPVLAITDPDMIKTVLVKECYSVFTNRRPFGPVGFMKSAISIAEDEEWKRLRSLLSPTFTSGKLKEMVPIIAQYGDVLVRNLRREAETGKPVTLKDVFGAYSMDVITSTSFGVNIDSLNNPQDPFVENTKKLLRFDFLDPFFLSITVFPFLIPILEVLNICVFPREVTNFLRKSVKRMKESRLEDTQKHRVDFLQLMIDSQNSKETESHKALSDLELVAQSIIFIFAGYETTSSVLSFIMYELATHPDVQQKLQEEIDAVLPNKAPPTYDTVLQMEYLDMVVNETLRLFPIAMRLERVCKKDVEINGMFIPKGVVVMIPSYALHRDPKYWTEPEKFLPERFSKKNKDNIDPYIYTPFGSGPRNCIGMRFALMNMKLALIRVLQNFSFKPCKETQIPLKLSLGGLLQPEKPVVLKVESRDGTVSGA

[34] = biological target: PRMT5/MEP50 complex (Homo sapiens, UniProt O14744)
PRMT5/MEP50 complex, sequence (O14744 whole entry): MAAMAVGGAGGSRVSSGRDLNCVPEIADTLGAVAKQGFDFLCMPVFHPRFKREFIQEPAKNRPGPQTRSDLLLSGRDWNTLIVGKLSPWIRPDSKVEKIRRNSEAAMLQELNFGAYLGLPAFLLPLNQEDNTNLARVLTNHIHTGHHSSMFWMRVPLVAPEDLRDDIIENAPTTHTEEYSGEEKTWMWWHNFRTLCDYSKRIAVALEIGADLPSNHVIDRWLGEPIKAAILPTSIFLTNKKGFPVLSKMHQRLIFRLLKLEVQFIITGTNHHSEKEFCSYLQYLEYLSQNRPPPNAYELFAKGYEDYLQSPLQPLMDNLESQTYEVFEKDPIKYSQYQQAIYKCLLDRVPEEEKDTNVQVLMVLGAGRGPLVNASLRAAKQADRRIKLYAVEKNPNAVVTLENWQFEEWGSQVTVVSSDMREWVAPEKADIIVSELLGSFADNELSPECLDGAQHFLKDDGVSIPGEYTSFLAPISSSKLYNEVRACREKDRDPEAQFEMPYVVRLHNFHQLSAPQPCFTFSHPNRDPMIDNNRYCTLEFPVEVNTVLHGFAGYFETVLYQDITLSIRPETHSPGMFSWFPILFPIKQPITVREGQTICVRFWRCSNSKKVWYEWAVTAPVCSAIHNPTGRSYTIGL
PRMT5/MEP50 complex, sequence (Q9BQA1 whole entry, further chain): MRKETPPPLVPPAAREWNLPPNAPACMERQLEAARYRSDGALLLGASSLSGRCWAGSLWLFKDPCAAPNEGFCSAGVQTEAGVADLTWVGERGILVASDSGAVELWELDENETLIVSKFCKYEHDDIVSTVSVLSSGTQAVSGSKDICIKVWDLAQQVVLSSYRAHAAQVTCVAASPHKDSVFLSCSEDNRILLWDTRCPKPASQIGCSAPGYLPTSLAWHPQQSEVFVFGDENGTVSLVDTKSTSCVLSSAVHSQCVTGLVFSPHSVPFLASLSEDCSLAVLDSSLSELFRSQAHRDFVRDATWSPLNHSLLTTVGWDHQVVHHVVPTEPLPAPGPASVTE
Description: Inhibition of PRMT5/MEP50 (unknown origin) preincubated with compound for 24 hrs in presence of SAM and MTA followed by Histone H4 (1-21)-Lys(Biotin) peptide addition and measured after 2 hrs by MTase-Glo reagent based assay

[35] = biological target: T1, Nuclear receptor subfamily 1 group I member 2 (Homo sapiens, UniProt O75469); experiment: Activation of human PXR in human HepG2 cells co-transfected with CYP3A4-luciferase at 10 uM incubated for 1 day relative to control; details: hepg2, 24 h
T1 sequence (O75469 whole entry): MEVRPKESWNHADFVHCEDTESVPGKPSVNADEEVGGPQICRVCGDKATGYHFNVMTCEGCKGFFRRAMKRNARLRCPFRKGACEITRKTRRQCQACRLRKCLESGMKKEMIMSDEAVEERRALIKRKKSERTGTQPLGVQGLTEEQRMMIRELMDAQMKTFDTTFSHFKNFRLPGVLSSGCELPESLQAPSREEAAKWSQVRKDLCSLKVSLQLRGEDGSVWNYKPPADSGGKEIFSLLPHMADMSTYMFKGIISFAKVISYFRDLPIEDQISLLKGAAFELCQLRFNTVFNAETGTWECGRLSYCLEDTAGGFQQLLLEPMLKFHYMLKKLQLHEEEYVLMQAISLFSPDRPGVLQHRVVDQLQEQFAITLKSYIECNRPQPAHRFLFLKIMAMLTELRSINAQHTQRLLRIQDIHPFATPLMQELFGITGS

[36] = Clearance in CD-1 mouse at 1 mg/kg, iv; details: in vivo
[37] = in vivo; details: CD-1, mouse, iv, 1 mg/kg

SMILES: Cc1cc2cc(C(=O)N(Cc3ccc(C(F)(F)F)cn3)[C@H](C)c3ncccn3)ccc2nc1N
- hepatocyte CLint [1]: 11 µL/min/1e6 cells
- bioavailability [2]: 45%
- half-life [3]: 72 min
- CL free [4]: 7.4 L/h/kg
- CL free [5]: 19 L/h/kg
- clearance [6]: 26.7 mL/min/kg
- half-life [7]: 126 min
- fraction unbound [8]: 0.2
- clearance [9]: 25 mL/min/kg
- AUC(0-t) [10]: 1.01 µM·h
- Drug metabolism [11]: metabolite_detected
- CL free [12]: 10 L/h/kg
- microsomal CLint at 0.5 µM [13]: 25 µL/min/mg
- IC50 [14]: 73 nM
- Vd [15]: 1.3 L/kg
- IC50 [16]: 65 nM
- microsomal CLint [17]: 25 µL/min/mg
- fraction unbound ([18]; plasma): 0.12
- hepatocyte CLint [19]: 18 µL/min/1e6 cells
- IC50 [20]: 17 nM
- IC50 [21]: 40 nM
- hepatocyte CLint [22]: 9 µL/min/1e6 cells
- IC50 [23]: 0.854 µM
- microsomal CLint at 0.5 µM [24]: 90 µL/min/mg
- hepatocyte CLint [25]: 12 µL/min/1e6 cells
- microsomal CLint at 0.5 µM [26]: 19 µL/min/mg
- Vd [27]: 1.9 L/kg
- Drug metabolism [28]: metabolite_detected
- fraction unbound [29]: 0.1

- CL free [5]: 1.5 L/h/kg
- bioavailability [30]: 46%
- half-life [31]: 150 min
- efflux ratio [32]: 36
- inhibition at 30 min, 10 µM [33]: < 20%
- Ki [34]: 0.2 nM
- Activity [35]: < 20%
- fraction unbound ([18]; mouse plasma): 0.27
- IC50 [21]: 533 nM
- IC50 [23]: 8.53 µM
- microsomal CLint at 0.5 µM [24]: 17 µL/min/mg
- clearance [36]: 6.67 mL/min/kg
- Vd [37]: 1 L/kg
- microsomal CLint at 0.5 µM [26]: 14 µL/min/mg
SMILES: Nc1nc2ccc(C(=O)N3CCOC[C@@H]3c3ccc(C(F)(F)F)nc3)cc2c2c1COC2

- CL free [5]: 5.8 L/h/kg
- bioavailability [30]: 95%
- half-life [31]: 120 min
- efflux ratio [32]: 10
- inhibition at 30 min, 10 µM [33]: < 20%
- Ki [34]: < 0.1 nM
- Activity [35]: < 20%
- fraction unbound ([18]; mouse plasma): 0.12
- IC50 [21]: 100 nM
- IC50 [23]: 3.21 µM
- microsomal CLint at 0.5 µM [24]: 45 µL/min/mg
- clearance [36]: 11.7 mL/min/kg
- Vd [37]: 1.5 L/kg
- microsomal CLint at 0.5 µM [26]: 30 µL/min/mg
SMILES: CCN(Cc1ccc(C(F)(F)F)cn1)C(=O)c1ccc2nc(N)c3c(c2c1)COC3
